# Assay results as given in patent US12428395B2, “Heterocyclic compounds as kinase inhibitor and uses thereof” (SPEROGENIX THERAPEUTICS LIMITED, priority 2019, dated 2025).
# What was measured:
# [1] = target: CHK-1 kinase (Homo sapiens (Human), UniProt O14757); assay: CHK-1 Kinase Assay (Z-LYTE based TR-FRET); format: biochemical; settings: for inhibition at 0.1 µM: 0.1 μM compound, read-out: % Inhibition of CHK-1 enzyme activity @ 0.1 μM; for inhibition at 1 µM: 1 μM compound, read-out: % Inhibition of CHK-1 enzyme activity @ 1 μM; for inhibition at 5 µM: 5 μM compound, read-out: % Inhibition of CHK-1 enzyme activity @ 5 μM
# CHK-1 kinase, sequence (O14757 whole entry): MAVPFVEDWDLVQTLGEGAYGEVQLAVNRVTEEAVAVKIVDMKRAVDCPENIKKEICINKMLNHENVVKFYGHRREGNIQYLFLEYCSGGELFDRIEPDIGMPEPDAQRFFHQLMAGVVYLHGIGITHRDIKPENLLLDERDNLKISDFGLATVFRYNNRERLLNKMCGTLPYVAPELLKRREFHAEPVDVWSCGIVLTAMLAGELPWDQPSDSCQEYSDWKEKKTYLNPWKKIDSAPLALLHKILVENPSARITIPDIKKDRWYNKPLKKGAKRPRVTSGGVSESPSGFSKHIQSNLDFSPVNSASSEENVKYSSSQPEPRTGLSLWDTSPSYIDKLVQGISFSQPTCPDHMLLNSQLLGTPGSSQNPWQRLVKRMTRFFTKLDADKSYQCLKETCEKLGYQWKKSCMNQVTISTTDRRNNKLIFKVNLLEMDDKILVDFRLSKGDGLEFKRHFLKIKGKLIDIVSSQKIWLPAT
# Procedure: IC50 values of compounds for inhibition of CHK-1 kinase or percent inhibition at defined concentrations were determined by Z-LYTE™ based TR-FRET assay. Kinase reactions were performed in a 10 μL volume in low-volume 384-well plates. The concentration of substrate (Ser Thr 19) was maintained at 2 μM in the assay, and the kinase reaction buffer consisted of 50 mM HEPES pH 7.5, 0.01% BRIJ-35, 10 mM MgCl2, 1 mM EGTA, 2 mM DTT. Serially diluted compounds (3-fold) in DMSO (0.5% in final reaction) were incubated with cocktail of CHK-1 kinase (5 ng/ml; Cat #P3040, ThermoFisher), substrate Ser Thr 19, (2 μM; Cat #PV4529, ThermoFisher), ATP (53 μM; Cat #PV3227, ThermoFisher) and buffer. Kinase reactions were allowed to proceed for 1 hour at room temperature after which 5 μL of a 1:256 dilution of Development Reagent A was added. The plate was allowed to incubate at room temperature for 60 minutes before being read on a BMG Pherastar plate reader using the Z-LYTE™ filter block for Z-LYTE™ TR-FRET. The resulting TR-FRET emission ratio was used to calculate percent inhibition by normalizing with the control using the following formula: — [% Inhibition=1−{(% Phosphorylationsample/% Phosphorylationcontrol (0% Inhibition)}·100] For calculation of IC50, the percent inhibition obtained was plotted against the concentration of inhibitor, and the data was fit to a sigmoidal dose-response curve with a variable slope. The IC50 was calculated from the curve.
# [2] = tested on: AsPC-1; assay: Cell viability assay (resazurin), AsPC-1; format: cell-based; settings: Homo sapiens, ASPC1; AsPC-1 pancreatic cancer cells
# Procedure: (§1) Protocol for Cell Viability Assay in Different Cell Lines for CHK-1 Inhibitors:
# (§2) Cells were allowed to grow at 37° C. for 24 hr (adherent cells) in 5% CO2 (culture conditions) in a Nuaire incubator (humidified). Following 24 hr (adherent cells), serially diluted compounds (100 μl) were added to the culture plate (immediately after plating in case of suspension cells) and the cultures were further incubated in culture conditions for 72-144 hr depending on the cell type. Experiment was terminated at the completion of respective incubation with drug by replacing the medium with 100 μl of 1 mM of resazurin (R7017; Sigma) prepared in culture medium and the plates were further incubated in culture conditions for 4 hr. In case of 144 hr incubation with the drug, the drug was replenished once with fresh medium after 72 hr. Fluorescence was then measured using a multimodal plate reader (Biotek Synergy Neo) at an excitation wavelength of 535 nm and emission wavelength of 590 nm to obtain relative fluorescence units. Data analysis was done by subtracting the background fluorescence (only medium blank) value from each reading and then normalizing with the vehicle control (DMSO treated cells) to obtain percent survival/proliferation. Percent survival at different doses was used to calculate IC50 by fitting the curve to the “four-parameter variable slope logistic model” using Prism Graph Pad.
# [3] = tested on: MiaPaCa-2; assay: Cell viability assay (resazurin), MiaPaCa-2; format: cell-based; settings: Homo sapiens, MIA PaCa-2; MiaPaCa-2 pancreatic cancer cells
# Procedure: as §1, §2
# [4] = tested on: THP1; assay: Cell viability assay (resazurin), THP1; format: cell-based; settings: Homo sapiens, THP-1; THP1 peripheral blood cells
# Procedure: as §1, §2
SMILES,inhibition at 0.1 µM [1],inhibition at 1 µM [1],inhibition at 5 µM [1],IC50 [2],IC50 [3],IC50 [4],IC50 [1]
"N#Cc1cnc(Nc2cc(NCC3CCNCC3)c(-c3ccc(F)cc3)nn2)cn1 [1.21, 5-(6-(4-fluorophenyl)-5-(piperidin-4-ylmethylamino)pyridazin-3-ylamino)pyrazine-2-carbonitrile]",3%,5%,33%,,,,
"Cn1cc(Nc2cc(NCC3CNCCO3)c(-c3ccccc3)nn2)cn1 (centres unmarked) [1.4, N3-(1-methyl-1H-pyrazol-4-yl)-N5-(morpholin-2-ylmethyl)-6-phenylpyridazine-3,5-diamine]",,3%,5%,,,,
"Cc1nnc(Nc2cnc(C#N)cn2)cc1NCC1CCNCC1 [1.15, 5-(6-methyl-5-(piperidin-4-ylmethylamino)pyridazin-3-ylamino)pyrazine-2-carbonitrile]",7%,8%,23%,,,,
"N#Cc1cnc(Nc2cc(NCC3CCNCC3)c(-c3ccc(Oc4ccccc4)cc3)nn2)cn1 [1.22, 5-(6-(4-phenoxyphenyl)-5-(piperidin-4-ylmethylamino)pyridazin-3-ylamino)pyrazine-2-carbonitrile]",8%,27%,65%,,,,
"COc1ccc(-c2nnc(Nc3cnc(C#N)cn3)cc2NCC2CCNCC2)cc1 [1.23, 5-(6-(4-methoxyphenyl)-5-(piperidin-4-ylmethylamino)pyridazin-3-ylamino)pyrazine-2-carbonitrile]",7%,18%,41%,,,,
"N#Cc1cnc(Nc2cc(NCC3CCNCC3)c(C3CC3)nn2)cn1 [1.18, 5-(6-cyclopropyl-5-(piperidin-4-ylmethylamino)pyridazin-3-ylamino)pyrazine-2-carbonitrile]",6%,24%,59%,,,,
"CNC(=O)c1nnc(Nc2cnc(C#N)cn2)cc1NCC1CCN(C)CC1 [1.19, 6-(5-cyanopyrazin-2-ylamino)-N-methyl-4-((1-methylpiperidin-4-yl)methylamino)pyridazine-3-carboxamide]",49%,90%,99%,8.45 µM,26.2 µM,13.1 µM,
"Cc1nnc(Nc2cnc(C#N)cn2)cc1NCC1CNCCO1 (centres unmarked) [1.14, 5-(6-methyl-5-(morpholin-2-ylmethylamino)pyridazin-3-ylamino)pyrazine-2-carbonitrile]",2%,15%,45%,,,,
"CN1CCC(CNc2cnnc(Nc3cnc(C#N)cn3)c2)CC1 [1.10, 5-(5-((1-methylpiperidin-4-yl)methylamino)pyridazin-3-ylamino)pyrazine-2-carbonitrile]",8%,3%,15%,,,,
"Cn1ccc(-c2nnc(Nc3cnc(C#N)cn3)cc2OCC2CNCCO2)n1 (centres unmarked) [1.13, 5-(6-(1-methyl-1H-pyrazol-3-yl)-5-(morpholin-2-ylmethoxy)pyridazin-3-ylamino)pyrazine-2-carbonitrile]",9%,9%,11%,,,,
"N#Cc1cnc(Nc2cc(NCC3CCNCC3)c(C(F)(F)F)nn2)cn1 [1.8, 4-((6-(5-cyanopyrazin-2-ylamino)-3-(trifluoromethyl)pyridazin-4-ylamino)methyl)piperidinium 2,2,2-trifluoroacetate]",,,,,,,5.81 µM
"N#Cc1cnc(Nc2cc(NCC3CCNCC3)c(-c3cccc4[nH]ccc34)nn2)cn1 [1.24, 5-(6-(1H-indol-4-yl)-5-(piperidin-4-ylmethylamino)pyridazin-3-ylamino)pyrazine-2-carbonitrile]",2%,2%,34%,,,,
"CN1CCC(Nc2cc(Nc3cnc(C#N)cn3)nnc2C(N)=O)CC1 [1.20, 6-(5-cyanopyrazin-2-ylamino)-4-(1-methylpiperidin-4-ylamino)pyridazine-3-carboxamide]",61%,93%,100%,11.9 µM,23.5 µM,21.8 µM,
"N#Cc1cnc(Nc2cc(OCC3CNCCO3)cnn2)cn1 (centres unmarked) [1.9, 5-(5-(morpholin-2-ylmethoxy)pyridazin-3-ylamino)pyrazine-2-carbonitrile]",,,,,,,> 10 µM
"CC(C)(C)OC(=O)N1CCOC(CNc2cc(Nc3cnc(C#N)cn3)nnc2C(F)(F)F)C1 (centres unmarked) [1.5, tert-butyl 2-((6-(5-cyanopyrazin-2-ylamino)-3-(trifluoromethyl)pyridazin-4-ylamino)methyl)morpholine-4-carboxylate]",,,,,,,> 10 µM
"N#Cc1cnc(Nc2cc(NCC3CNCCO3)c(C3CC3)nn2)cn1 (centres unmarked) [1.17, 5-(6-cyclopropyl-5-(morpholin-2-ylmethylamino)pyridazin-3-ylamino)pyrazine-2-carbonitrile]",3%,12%,41%,,,,

# Next, values leading:
inhibition at 0.1 µM [1],inhibition at 1 µM [1],inhibition at 5 µM [1],IC50 [2],IC50 [3],IC50 [4],IC50 [1],SMILES
0%,8%,34%,,,,,"N#Cc1cnc(Nc2cc(NCC3CCNCC3)c(-c3ccc(CO)cc3)nn2)cn1 [1.27, 5-(6-(4-(hydroxymethyl)phenyl)-5-(piperidin-4-ylmethylamino)pyridazin-3-ylamino)pyrazine-2-carbonitrile]"
3%,3%,15%,,,,,"CN(C)C(=O)c1nnc(Nc2cnc(C#N)cn2)cc1NCC1CCNCC1 [1.32, 6-(5-cyanopyrazin-2-ylamino)-N,N-dimethyl-4-(piperidin-4-ylmethylamino)pyridazine-3-carboxamide]"
0%,11%,25%,,,,,"CC(C)Oc1nnc(Nc2cnc(C#N)cn2)cc1NCC1CCNCC1 [1.31, 5-(6-isopropoxy-5-(piperidin-4-ylmethylamino)pyridazin-3-ylamino)pyrazine-2-carbonitrile]"
13%,48%,86%,,,,,"Cn1ccc(-c2nnc(Nc3cnc(C#N)cn3)cc2NCC2CCNCC2)n1 [1.28, 5-(6-(1-methyl-1H-pyrazol-3-yl)-5-(piperidin-4-ylmethylamino)pyridazin-3-ylamino)pyrazine-2-carbonitrile]"
8%,10%,42%,,,,,"N#Cc1cnc(Nc2cc(NCC3CCNCC3)c(-c3cccc(N4CCCCC4)c3)nn2)cn1 [1.25, 5-(6-(3-(piperidin-1-yl)phenyl)-5-(piperidin-4-ylmethylamino)pyridazin-3-ylamino)pyrazine-2-carbonitrile]"
28%,78%,97%,,,,,"CNC(=O)c1nnc(Nc2cnc(C#N)cn2)cc1NCC1CCOCC1 [1.30, 6-(5-cyanopyrazin-2-ylamino)-N-methyl-4-((tetrahydro-2H-pyran-4-yl)methylamino)pyridazine-3-carboxamide]"
19%,60%,93%,,,,,"N#Cc1cnc(Nc2cc(NCC3CCOCC3)c(C(N)=O)nn2)cn1 [1.29, 6-(5-cyanopyrazin-2-ylamino)-4-((tetrahydro-2H-pyran-4-yl)methylamino)pyridazine-3-carboxamide]"
10%,35%,75%,,,,,"N#Cc1cnc(Nc2cc(NCC3CCNCC3)c(OCC(F)(F)F)nn2)cn1 [1.33, 5-(5-(piperidin-4-ylmethylamino)-6-(2,2,2-trifluoroethoxy)pyridazin-3-ylamino)pyrazine-2-carbonitrile]"
0%,9%,26%,,,,,"COc1cccc(-c2nnc(Nc3cnc(C#N)cn3)cc2NCC2CCNCC2)c1 [1.26, 5-(6-(3-methoxyphenyl)-5-(piperidin-4-ylmethylamino)pyridazin-3-ylamino)pyrazine-2-carbonitrile]"
